Test results published in US20250129012A1, “ANTI-INFLAMMATORY AND ANALGESIC COMPOUNDS AND USE THEREOF” (JIANGSU ATOM BIOSCIENCE AND PHARMACEUTICAL CO., LTD., priority 2021, published 2025).
Where two headings read alike, the source gives them in different places. Marks after values point to notes of the source that are not given here.

How the values were obtained:
Format in all cases: in vivo, SD rats
IL-6 = assay: Inflammatory factor experiment B: IL-6 in knee synovial tissue (ELISA); settings: Rattus norvegicus, po, 48 h, read-out: IL-6 percentage decrease %
IL-1β = assay: Inflammatory factor experiment B: IL-1β in knee synovial tissue (ELISA); settings: Rattus norvegicus, po, 48 h, read-out: IL-1β percentage decrease %
TNF-α = assay: Inflammatory factor experiment B: TNF-α in knee synovial tissue (ELISA); settings: Rattus norvegicus, po, 48 h, read-out: TNF-α percentage decrease %
[1] = tested on: gouty arthritis rats (sodium urate, right ankle and knee joint cavities); assay: Pharmacodynamics experiment B on gouty arthritis rats: ankle swelling rate; settings: Rattus norvegicus, po, read-out: Swelling rate (ankle)
Procedure: (§1) Compounds 12, 16, 19, 30, 34, 36, 38, 40, 44, 48, 49, 52, 58, 69, 83, 98, 102, 119, 121, and 122 were prepared by grinding with 0.5% CMC-Na prior to administration and formulated into suspensions of appropriate concentration (0.12 mg/mL) for gavage, with an administered dose of 0.5 mL/100 g.
(§2) 240 SD rats, males, were acclimatized for one week and weighed 180-220 g. […] The dose of each compound group was 0.6 mg/kg. The compounds in each group were prepared into the corresponding concentration suspension, and the volume of administration was 10 mL/kg.
(§3) 250 mg of sodium urate were added to 9 mL of saline, and 1 mL of Tween-80 solution was added, the resulting mixture was heated and stirred to formulate 10 mL of sodium urate solution. The rats were grasped and fixed, and 0.2 mL of sodium urate solution was injected into the right ankle and knee joint cavities respectively to establish gouty arthritis rat model.
(§4) Before modeling, positive drug and tested compounds were pre-administered for 7 days, once a day, and modeling was performed on day 8, and drug administration by gavage continued for 3 days after modeling.
Before modeling and 2 h, 4 h, 8 h, 10 h, 24 h and 48 h after modeling, the circumference of the right ankle joint was measured using a soft ruler or the volume change at the ankle was measured (volumetric method), and the swelling degree and swelling rate of ankle joint were calculated:
Swelling degree (mm)=measured circumference (mm)−baseline circumference (mm)
Swelling rate (%)=swelling degree (mm)/baseline circumference (mm)×100%
(§5) Each experimental data was expressed as the mean, and intergroup comparisons were examined for significance using the ANOVA-Dunnett T-test, with P<0.05 as the significance indicator.

[2] = tested on: gouty arthritis rats (sodium urate, right ankle and knee joint cavities); assay: Pharmacodynamics experiment B on gouty arthritis rats: gait score; settings: for Gait Score: dose 0.6 mg/kg gavage, mean; for Gait versus model group, in words: compounds 0.6 mg/kg, colchicine 0.6 and 1.2 mg/kg
Procedure: as §1, §2, §3, §4
Gait was scored according to the modified gait grading criteria introduced by Coderre et al. The gait of each rat was observed before and 2 h, 4 h, 8 h, 10 h, 24 h and 48 h after modeling and graded scoring was performed. The gait grading criteria were as follows: 0 point, normal walking; 1 point, slight lameness, the lower limbs were slightly bent; 2 points: moderate lameness, the lower limbs just touched the ground; 3 points, severe lameness, the lower limbs left the ground, and walked on three feet. The mean score of each group was calculated and compared with that of the model group.
as §5

| Compound | inhibition in vivo at 0.6 mg/kg (IL-6) | inhibition in vivo at 0.6 mg/kg (IL-1β) | inhibition in vivo at 0.6 mg/kg (TNF-α) | change in vivo at 0.6 mg/kg ([1]; 2 h) | change in vivo at 0.6 mg/kg ([1]; 4 h) | change in vivo at 0.6 mg/kg ([1]; 8 h) | change in vivo at 0.6 mg/kg ([1]; 10 h) | change in vivo at 0.6 mg/kg ([1]; 24 h) | change in vivo at 0.6 mg/kg ([1]; 48 h) | Gait Score ([2]; 2 h) | Gait Score ([2]; 4 h) | Gait Score ([2]; 8 h) | Gait Score ([2]; 10 h) | Gait Score ([2]; 24 h) | Gait Score ([2]; 48 h) | Gait versus model group, in words [2] |
| --- | --- | --- | --- | --- | --- | --- | --- | --- | --- | --- | --- | --- | --- | --- | --- | --- |
| COc1cc2c(c(OC)c1OC)-c1ccc(=O)c(O[C@H]3CCOC3)cc1[C@@H](NC(C)=O)CC2 [Compound 19, N—{(S)-1,2,3-trimethoxy-10-oxo-9-{[(S)-tetrahydrofuran-3-yl]oxy}-5,6,7,10-tetrahydrobenzo[a]heptalen-7-yl}acetamide] | 98.1% | 81.5% | 84.7% | 8.77% | 10.9% | 17.1% | 14.1% | 19.4% | 7.77% | 0.0 | 0 | 0** | 0** | 0.2 | 0.1 | significant improvement in gait occurred at different time points |
| COc1cc2c(c(OC)c1OC)-c1ccc(C#N)c(=O)cc1[C@@H](NC(C)=O)CC2 [Compound 38, (S)—N-(10-cyano-1,2,3-trimethoxy-9-oxo-5,6,7,9-tetrahydrobenzo[a]heptalen-7-yl)acetamide] | 69% | 102% | 86.6% | 6.34% | 12.6% | 10.4% | 17.9% | 16.9% | 6.71% | 0 | 0 | 0* | 0* | 0 | 0 | significant improvement in gait occurred at different time points |
| COc1cc2c(c(OC)c1OC)-c1ccc(C(=O)N3CCC[C@H]3C#N)c(=O)cc1[C@@H](NC(C)=O)CC2 [Compound 60, N—{(S)-10-[(S)-2-cyanopyrrolidin-1-carbonyl]-1,2,3-trimethoxy-9-oxo-5,6,7,9-tetrahydrobenzo[a]heptalen-7-yl}acetamide] | 59.5% | 76.1% | 85.8% |  |  |  |  |  |  |  |  |  |  |  |  |  |
| COc1cc2c(c(OC)c1OC)-c1ccc(C(=O)N3CCCC3)c(=O)cc1[C@@H](NC(C)=O)CC2 [Compound 61, (S)—N-{1,2,3-trimethoxy-9-oxo-10-(pyrrolidin-1-carbonyl)-5,6,7,9-tetrahydrobenzo[a]heptalen-7-yl}acetamide] | 52.5% | 97.2% | 71.2% |  |  |  |  |  |  |  |  |  |  |  |  |  |
| CNC(=O)N[C@H]1CCc2cc(OC)c(OC)c(OC)c2-c2ccc(C(=O)NC)c(=O)cc21 [Compound 81, (S)-1,2,3-trimethoxy-N-methyl-7-(3-methylureido)-9-oxo-5,6,7,9-tetrahydrobenzo[a]heptalen-10-carboxamide] | 70.6% | 86.6% | 78% |  |  |  |  |  |  |  |  |  |  |  |  |  |
| COc1cc2c(c(OC)c1OC)-c1ccc(-n3cnnn3)c(=O)cc1[C@@H](NC(C)=O)CC2 [Compound 95, (S)—N-{1,2,3-trimethoxy-9-oxo-10-(1H-tetrazol-1-yl)-5,6,7,9-tetrahydrobenzo[a]heptalen-7-yl}acetamide] | 109% | 40.4% | 70% |  |  |  |  |  |  |  |  |  |  |  |  |  |
